Patent US11207310B2 (PRILENIA NEUROTHERAPEUTICS LTD., priority 2016, dated 2021)
Read-outs that look alike come from different tables or passages of the source.

Experiments:
patients with HD [1] = settings: Week 26
Protocol: The HD-QoL is a standardized instrument for measuring health-related quality of life. […] It is a validated disease-specific measure designed for HD, and can provide a summary score of overall health-related quality of life, as well as scores on several discrete scales. […] HD-QoL can be used across the full spectrum of HD.
The change from baseline in HD-QoL and in EQSD-5L was analyzed using an Analysis of Covariance (ANCOVA) Model. The model includes the following fixed effects: treatment, center, neuroleptic use or no use, and baseline HD-QoL or EQSD-5L score. The last observation carried forward (LOCF) was applied for these endpoints for early terminated subjects.

patients with HD [2] = tested on: patients with HD
Protocol: The CAB may be used to detect symptomatic, “pro-cognitive” effects (6 months-1 year) and slowing rate of cognitive decline (>1 year). […] The CAB covers domains most impacted in HD, using tests with good psychometric properties. The following six sections describe the tests that are part of the CAB brief. • 1. Symbol Digit Modalities Test
Psychomotor function is assessed in a Paced Tapping test (also known as PTAP). Participants tap on left and right mouse buttons, alternating between thumbs, at 3.0 Hz. They first listen to a tone presented at the desired tapping rate, and then begin tapping to the tone. After 11 taps with the tone, the repetition of the tone is discontinued, and participants attempt to continue tapping at the same rate until the end of the trial (31 taps later). • 6. One Touch Stockings of Cambridge (OTS)

patients with HD [3] = tested on: patients with HD; remark: listed apart in the source
Protocol: The independence scale of the UHDRS is a rating scale where the patient's degree of independence was given in percentage, from 10% (tube fed, total bed care) to 100% (no special care needed). […] Patients with a UHDRS-IS score >90% at the screening visit were not eligible for the study.
It is a rating scale where the patient's degree of independence is given in percentage, from 10% (tube fed, total bed care) to 100% (no special care needed). […] The scale was assessed at screening, baseline, weeks 4, 12, 20, 26/Early Termination, 28 and 52/Early Termination.

CCCN1CCC(c2cccc(S(C)(=O)=O)c2)CC1 [pridopidine, 4-[3-(methylsulfonyl)phenyl]-1-propyl-piperidine]
Change from baseline in HD-QoL Participant Total Score, Δ to placebo (patients with HD [1]; 90 mg bid, Stage 2 BL TFC 7-10): 10.64 | Change from baseline in HD-QoL Participant Total Score, Δ to placebo (patients with HD [1]; 112.5 mg bid, ALL): −1.36 | HD-QoL Participant Total Score, change from baseline, Δ to placebo (patients with HD [1]; 112.5 mg bid, BL TFC<7, p value 0.7016): −4.33 | HD-QoL Participant Total Score, change from baseline, Δ to placebo (patients with HD [1]; 112.5 mg bid, BL TFC≥7, p value 0.8365): −0.99 | Change from baseline in HD-QoL Participant Total Score, Δ to placebo (patients with HD [1]; 112.5 mg bid, Stage 2 BL TFC 7-10): 4.29 | Paced Tapping at 3 Hz, change from baseline (patients with HD [2]; 45 mg bid, full analysis set, week 52): Positive findings indicating potential improvement from baseline | Δ to placebo: CAB Paced Tapping at 3 Hz, change from baseline (patients with HD [2]; 45 mg bid, week 26): 0.4736 | Δ to placebo: CAB Paced Tapping at 3 Hz, change from baseline (patients with HD [2]; 45 mg bid, week 52): 1.3234 | Δ to placebo: CAB Paced Tapping at 3 Hz, change from baseline (patients with HD [2]; 67.5 mg bid, week 26): −0.041 | Δ to placebo: CAB Paced Tapping at 3 Hz, change from baseline (patients with HD [2]; 67.5 mg bid, week 52): 0.3701 | Δ to placebo: CAB Paced Tapping at 3 Hz, change from baseline (patients with HD [2]; 90 mg bid, week 26): 0.1975 | Δ to placebo: CAB Paced Tapping at 3 Hz, change from baseline (patients with HD [2]; 90 mg bid, week 52): 0.2659 | Δ to placebo: CAB Paced Tapping at 3 Hz, change from baseline (patients with HD [2]; 112.5 mg bid, week 26): 0.9515 | Δ to placebo: CAB Paced Tapping at 3 Hz, change from baseline (patients with HD [2]; 112.5 mg bid, week 52): 0.1523 | Change from baseline in UHDRS Independence Scale, Δ to placebo (patients with HD [3]; 45 mg bid, Week 26, ALL): 1.79 | UHDRS Independence Scale, change from baseline, Δ to placebo (patients with HD [3]; 45 mg bid, Week 26, BL TFC<7, p value 0.8796): 0.3 | UHDRS Independence Scale, change from baseline, Wk 26 Δ to placebo (patients with HD [3]; 45 mg bid, Week 26, BL TFC≥7, p value 0.0128): 2.22 | Change from baseline in UHDRS Independence Scale, Δ to placebo (patients with HD [3]; 45 mg bid, Week 26, Stage 1 BL TFC 11-13): 4.94 | Change from baseline in UHDRS Independence Scale, Δ to placebo (patients with HD [3]; 45 mg bid, Week 52, ALL): 0.86 | UHDRS Independence Scale, change from baseline, Δ to placebo (patients with HD [3]; 45 mg bid, Week 52, BL TFC<7, p value 0.5799): −1.85 | UHDRS Independence Scale, change from baseline, Δ to placebo (patients with HD [3]; 45 mg bid, Week 52, BL TFC≥7, p value 0.1047): 1.99 | Change from baseline in UHDRS Independence Scale, Δ to placebo (patients with HD [3]; 45 mg bid, Week 52, Stage 1 BL TFC 11-13): 3.05 | Change from baseline in UHDRS Independence Scale, Δ to placebo (patients with HD [3]; 67.5 mg bid, Week 26, ALL): 0.3 | UHDRS Independence Scale, change from baseline, Δ to placebo (patients with HD [3]; 67.5 mg bid, Week 26, BL TFC<7, p value 0.8027): −0.44 | UHDRS Independence Scale, change from baseline, Wk 26 Δ to placebo (patients with HD [3]; 67.5 mg bid, Week 26, BL TFC≥7, p value 0.2755): 0.99 | Change from baseline in UHDRS Independence Scale, Δ to placebo (patients with HD [3]; 67.5 mg bid, Week 26, Stage 1 BL TFC 11-13): 2.27 | Change from baseline in UHDRS Independence Scale, Δ to placebo (patients with HD [3]; 67.5 mg bid, Week 52, ALL): 0.25 | UHDRS Independence Scale, change from baseline, Δ to placebo (patients with HD [3]; 67.5 mg bid, Week 52, BL TFC<7, p value 0.2415): −3.46 | UHDRS Independence Scale, change from baseline, Δ to placebo (patients with HD [3]; 67.5 mg bid, Week 52, BL TFC≥7, p value 0.0788): 2.22 | Change from baseline in UHDRS Independence Scale, Δ to placebo (patients with HD [3]; 67.5 mg bid, Week 52, Stage 1 BL TFC 11-13): 0.91 | Change from baseline in UHDRS Independence Scale, Δ to placebo (patients with HD [3]; 90 mg bid, Week 26, ALL): 0.78 | UHDRS Independence Scale, change from baseline, Δ to placebo (patients with HD [3]; 90 mg bid, Week 26, BL TFC<7, p value 0.9116): 0.2 | UHDRS Independence Scale, change from baseline, Wk 26 Δ to placebo (patients with HD [3]; 90 mg bid, Week 26, BL TFC≥7, p value 0.0949): 1.48 | Change from baseline in UHDRS Independence Scale, Δ to placebo (patients with HD [3]; 90 mg bid, Week 26, Stage 1 BL TFC 11-13): 1.73 | Change from baseline in UHDRS Independence Scale, Δ to placebo (patients with HD [3]; 90 mg bid, Week 52, ALL): −0.07 | UHDRS Independence Scale, change from baseline, Δ to placebo (patients with HD [3]; 90 mg bid, Week 52, BL TFC<7, p value 0.0779): −5.25 | UHDRS Independence Scale, change from baseline, Δ to placebo (patients with HD [3]; 90 mg bid, Week 52, BL TFC≥7, p value 0.0228): 2.79 | Change from baseline in UHDRS Independence Scale, Δ to placebo (patients with HD [3]; 90 mg bid, Week 52, Stage 1 BL TFC 11-13): 1.16 | Change from baseline in UHDRS Independence Scale, Δ to placebo (patients with HD [3]; 112.5 mg bid, Week 26, ALL): 1.41 | UHDRS Independence Scale, change from baseline, Δ to placebo (patients with HD [3]; 112.5 mg bid, Week 26, BL TFC<7, p value 0.3578): 1.65 | UHDRS Independence Scale, change from baseline, Wk 26 Δ to placebo (patients with HD [3]; 112.5 mg bid, Week 26, BL TFC≥7, p value 0.0919): 1.51 | Change from baseline in UHDRS Independence Scale, Δ to placebo (patients with HD [3]; 112.5 mg bid, Week 26, Stage 1 BL TFC 11-13): 2.38 | Change from baseline in UHDRS Independence Scale, Δ to placebo (patients with HD [3]; 112.5 mg bid, Week 52, ALL): 0.18 | UHDRS Independence Scale, change from baseline, Δ to placebo (patients with HD [3]; 112.5 mg bid, Week 52, BL TFC<7, p value 0.8613): −0.52 | UHDRS Independence Scale, change from baseline, Δ to placebo (patients with HD [3]; 112.5 mg bid, Week 52, BL TFC≥7, p value 0.7301): 0.44 | Change from baseline in UHDRS Independence Scale, Δ to placebo (patients with HD [3]; 112.5 mg bid, Week 52, Stage 1 BL TFC 11-13): −1.61 | change from baseline in the UHDRS-IS (patients with HD [3]; any treatment group, week 52): not statistically significant in any treatment group
